Laboratory results: patent US20230000863A1, “COMPOSITION CONTAINING AROMATIC HETEROCYCLIC COMPOUND IN AMORPHOUS FORM, AND PREPARATION METHOD THEREFOR AND USE THEREOF” (SHENZHEN CHIPSCREEN BIOSCIENCES CO., LTD., priority 2019, published 2023)

Experiments:
Assay type in all cases: in vivo
[1] = Pharmacokinetic test of compositions containing the compound of Formula (1) in rats; conditions: rat, po, fasted, gavage, 20 mg/kg of compound of Formula (1), LC-MS/MS
Procedure: Twenty-four healthy rats were selected and randomly divided into 4 groups, 6 rats per group, which were respectively compound of Formula (1), Example 3, Example 4 and Example 7. During the experiment, the rats were fasted overnight before administration, and blood was collected from the orbit before administration, and the plasma was separated, which was taken as the blood concentration sample at 0 h. The gavage solutions were prepared by dispersion with purified water, the concentration of the gavage solutions was 2 mg/ml, and each rat was administered with the compound of Formula (1) at a dose of 20 mg/kg, respectively. After administration, blood samples were collected at 15 min, 0.5 h, 1 h, 2 h, 4 h, 6 h, and 8 h, and each sample was collected about 0.5 ml, anticoagulated with heparin sodium, placed on ice after collection, and centrifuged within 1 hour to separate plasma, which was stored at −80° C. for later test. The drug concentration in plasma was measured by LC-MS/MS.

[2] = Pharmacokinetic test of pharmaceutical preparations in rats; conditions: both sexes, rat, po, fasted, gavage, 20 mg/kg of compound of Formula (1), LC-MS/MS
Text: Thirty healthy rats were selected and randomly divided into 5 groups, 6 rats (3 females, 3 males) per group, which were respectively the groups of the compound of Formula (1), the capsules of Formulation Example 1, the granules of Formulation Example 4, the tablets of Formulation Example 7, and the soft capsules of Formulation Example 10. During the experiment, the rats were fasted overnight before administration, and blood was collected from the orbit before administration, and the plasma was separated, which was taken as the blood concentration sample at 0 h. The gavage solutions were prepared by dispersing with purified water, the concentration of the gavage solutions was 2 mg/ml, and each rat was administered with the compound of Formula (1) at a dose of 20 mg/kg respectively. After administration, blood samples were collected at 15 min, 0.5 h, 1 h, 2 h, 4 h, 6 h, and 8 h, and each sample was collected about 0.5 ml, anticoagulated with heparin sodium, placed on ice after collection, and centrifuged within 1 hour to separate plasma, which was stored at −80° C. for later test. The drug concentration in plasma was measured by LC-MS/MS.

[3] = Pharmacokinetic test of pharmaceutical preparations in beagle dogs; conditions: po, fasted, gavage, 100 mg of compound of Formula (1) per dog, LC-MS/MS
Procedure: Nine healthy beagle dogs were selected, which were divided into the group of the compound of Formula (1), capsules of Formulation Example 1, and capsules of Formulation Example 11. During the experiment, the beagle dogs were fasted overnight before administration, and venous blood was collected before administration, and plasma was separated as the blood drug concentration sample at […]. Each beagle dog was administrated by gavage at a dose of 100 mg of the compound of Formula (1), respectively. After administration, blood samples were collected at 15 min, 0.5 h, 1 h, 2 h, 4 h, 8 h, and 24 h respectively. Each sample was collected about 0.5 ml, anticoagulated with heparin sodium, placed on ice after collection, and centrifuged within 1 hour to separate plasma, the drug concentration in plasma was measured by LC-MS/MS.

AUC(0-t) ([1]; plasma 0-8 h): 0.235 µg·h/mL
Cmax ([1]; plasma): 0.243 µg/mL
AUC(0-t) ([2]; plasma 0-8 h): 0.235 µg·h/mL
Cmax ([2]; plasma): 0.243 µg/mL
AUC(0-t) ([3]; plasma 0-24 h): 0.03 µg·h/mL
Cmax ([3]; plasma): 0.022 µg/mL
half-life ([3]; plasma): 24 min
Structure (SMILES): C=CC(=O)N(C)c1cc(Nc2ncc(Cl)c(NCCCNC(=O)c3ccc(C#N)cc3)n2)ccc1F [Compound of Formula (1)]
